{
  "source": "the supplement of paper PMC10307832",
  "assay_in_all_cases": "relative viability (nuclei count vs DMSO), 5 days (fraction); higher = more cells survive",
  "key": {"[1]": {"system": "NCI-H2023", "how_it_was_run": "(§1)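 Lung cancer cell lines were seeded in 1536-well plates and dosed by pin tool the next day, with either a single drug or a fixed anchor-drug dose combined with five library-drug doses (not always all listed) spaced in √10 steps. Five days later, one step fixed the cells and stained their nuclei (final 0.05% Triton X-100, 1% formaldehyde, 1 ug/ml Hoechst), and nuclei were counted on 4× images. Relative viability is the nuclei count in treated wells divided by the count in vehicle wells, and each value is the median of duplicate plates.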"}, "[2]": {"system": "NCI-H2085", "how_it_was_run": "as §1"}, "[3]": {"system": "NCI-H2126", "how_it_was_run": "as §1"}, "[4]": {"system": "NCI-H2342", "how_it_was_run": "as §1"}, "[5]": {"system": "NCI-H2347", "how_it_was_run": "as §1"}, "[6]": {"system": "NCI-H322M", "how_it_was_run": "as §1"}, "[7]": {"system": "NCI-H647", "how_it_was_run": "as §1"}, "[8]": {"system": "NCI-H661", "how_it_was_run": "as §1"}, "[9]": {"system": "NCI-H727", "how_it_was_run": "as §1"}, "[10]": {"system": "PC-14", "how_it_was_run": "as §1"}, "[11]": {"system": "SK-LU-1", "how_it_was_run": "as §1"}, "[12]": {"system": "SW 1573", "how_it_was_run": "as §1"}},
  "data": [
    {"smiles": "C=C1C(=O)O[C@@H](CCCCCCCC)[C@@H]1C(=O)O", "note": "[C-75] + CCNC(=O)c1noc(-c2cc(C(C)C)c(O)cc2O)c1-c1ccc(CN2CCOCC2)cc1 [Luminespib] (partner 0.01 µM)", "values": [
      {"measurement": "relative viability", "setting": "[1]; first compound 0.253 µM", "result": 0.921},
      {"measurement": "relative viability", "setting": "[1]; first compound 0.8 µM", "result": 0.706},
      {"measurement": "relative viability", "setting": "[1]; first compound 8 µM", "result": 0.696},
      {"measurement": "relative viability", "setting": "[2]; first compound 0.08 µM", "result": 0.427},
      {"measurement": "relative viability", "setting": "[2]; first compound 0.253 µM", "result": 0.416},
      {"measurement": "relative viability", "setting": "[2]; first compound 0.8 µM", "result": 0.38},
      {"measurement": "relative viability", "setting": "[2]; first compound 2.53 µM", "result": 0.366},
      {"measurement": "relative viability", "setting": "[2]; first compound 8 µM", "result": 0.417},
      {"measurement": "relative viability", "setting": "[3]; first compound 0.08 µM", "result": 0.931},
      {"measurement": "relative viability", "setting": "[3]; first compound 0.253 µM", "result": 0.977},
      {"measurement": "relative viability", "setting": "[3]; first compound 0.8 µM", "result": 0.804},
      {"measurement": "relative viability", "setting": "[3]; first compound 2.53 µM", "result": 0.815},
      {"measurement": "relative viability", "setting": "[3]; first compound 8 µM", "result": 0.872},
      {"measurement": "relative viability", "setting": "[4]; first compound 0.08 µM", "result": 0.798},
      {"measurement": "relative viability", "setting": "[4]; first compound 0.253 µM", "result": 0.802},
      {"measurement": "relative viability", "setting": "[4]; first compound 0.8 µM", "result": 0.689},
      {"measurement": "relative viability", "setting": "[4]; first compound 2.53 µM", "result": 0.743},
      {"measurement": "relative viability", "setting": "[4]; first compound 8 µM", "result": 0.68},
      {"measurement": "relative viability", "setting": "[5]; first compound 0.08 µM", "result": 0.409},
      {"measurement": "relative viability", "setting": "[5]; first compound 0.253 µM", "result": 0.474},
      {"measurement": "relative viability", "setting": "[5]; first compound 0.8 µM", "result": 0.294},
      {"measurement": "relative viability", "setting": "[5]; first compound 8 µM", "result": 0.446},
      {"measurement": "relative viability", "setting": "[6]; first compound 0.08 µM", "result": 0.928},
      {"measurement": "relative viability", "setting": "[6]; first compound 0.253 µM", "result": 1.24},
      {"measurement": "relative viability", "setting": "[6]; first compound 0.8 µM", "result": 0.816},
      {"measurement": "relative viability", "setting": "[6]; first compound 2.53 µM", "result": 0.879},
      {"measurement": "relative viability", "setting": "[6]; first compound 8 µM", "result": 0.829},
      {"measurement": "relative viability", "setting": "[7]; first compound 0.08 µM", "result": 0.114},
      {"measurement": "relative viability", "setting": "[7]; first compound 0.253 µM", "result": 0.256},
      {"measurement": "relative viability", "setting": "[7]; first compound 0.8 µM", "result": 0.183},
      {"measurement": "relative viability", "setting": "[7]; first compound 2.53 µM", "result": 0.117},
      {"measurement": "relative viability", "setting": "[7]; first compound 8 µM", "result": 0.13},
      {"measurement": "relative viability", "setting": "[8]; first compound 0.08 µM", "result": 0.946},
      {"measurement": "relative viability", "setting": "[8]; first compound 0.253 µM", "result": 0.905},
      {"measurement": "relative viability", "setting": "[8]; first compound 0.8 µM", "result": 0.899},
      {"measurement": "relative viability", "setting": "[8]; first compound 2.53 µM", "result": 0.869},
      {"measurement": "relative viability", "setting": "[8]; first compound 8 µM", "result": 0.84},
      {"measurement": "relative viability", "setting": "[9]; first compound 0.08 µM", "result": 0.371},
      {"measurement": "relative viability", "setting": "[9]; first compound 0.253 µM", "result": 0.358},
      {"measurement": "relative viability", "setting": "[9]; first compound 0.8 µM", "result": 0.312},
      {"measurement": "relative viability", "setting": "[9]; first compound 8 µM", "result": 0.484},
      {"measurement": "relative viability", "setting": "[10]; first compound 0.08 µM", "result": 0.158},
      {"measurement": "relative viability", "setting": "[10]; first compound 0.253 µM", "result": 0.171},
      {"measurement": "relative viability", "setting": "[10]; first compound 0.8 µM", "result": 0.151},
      {"measurement": "relative viability", "setting": "[10]; first compound 2.53 µM", "result": 0.142},
      {"measurement": "relative viability", "setting": "[10]; first compound 8 µM", "result": 0.152},
      {"measurement": "relative viability", "setting": "[11]; first compound 0.08 µM", "result": 0.202},
      {"measurement": "relative viability", "setting": "[11]; first compound 0.253 µM", "result": 0.191},
      {"measurement": "relative viability", "setting": "[11]; first compound 0.8 µM", "result": 0.184},
      {"measurement": "relative viability", "setting": "[11]; first compound 2.53 µM", "result": 0.193},
      {"measurement": "relative viability", "setting": "[11]; first compound 8 µM", "result": 0.161},
      {"measurement": "relative viability", "setting": "[12]; first compound 0.08 µM", "result": 0.168},
      {"measurement": "relative viability", "setting": "[12]; first compound 0.253 µM", "result": 0.254},
      {"measurement": "relative viability", "setting": "[12]; first compound 0.8 µM", "result": 0.207},
      {"measurement": "relative viability", "setting": "[12]; first compound 2.53 µM", "result": 0.216},
      {"measurement": "relative viability", "setting": "[12]; first compound 8 µM", "result": 0.157}
    ]}
  ]
}
